{"source": "patent US20080249064A1", "about": "“Activities of an active principle obtained from powdered alfalfa seeds (Medicago sativa), active principle used and process of obtaining the same” (SOCIETE INDUSTRIELLE LIMOUSINE D'APPLICATION BIOLOGIQUE …, priority 2004, published 2008)", "key": {"collagen I": {"system": "collagen I", "test": "Synthesis of collagen I in human fibroblasts by ELISA dosage", "type": "cell-based", "settings": "normal human fibroblasts; retinol at 10^-5 M", "method": "The study is conducted on human fibroblasts by ELISA dosage. The fibroblasts are incubated in the presence or not of the active principle, of the fractions or of retinol at 10^−5 M. The results are shown in FIG. 2. Tests have been carried out on normal human fibroblasts by ELISA dosage. The fibroblasts were treated with retinol at 10^−5 M or with the active principle at 0.1%, 0.25% and 0.5%."}, "cutaneous micro-relief": {"system": "cutaneous micro-relief", "test": "Smoothing effect on cutaneous micro-relief of forearms in volunteers (profilometer)", "type": "in vivo, human", "settings": "active principle 4% or retinol 0.15% in emulsion, bi-daily for 28 days, against placebo", "method": "The active principle is formulated at 4% in emulsion, and retinol is formulated at 0.15% in an emulsion. The 2 formulations are tested on 2 groups of volunteers, against a placebo. The tests are carried out and the influence of the active principle or of retinol on the appearance of cutaneous micro-relief, after bi-daily application for 28 days. The analyses are carried out by observation of prints of the cutaneous micro-relief with the help of a profilometer associated with an image analyzer. The zones in question in this study are cutaneous zones of the forearms. The observed parameter is the mean rugosity of the micro-contour."}, "skin": {"system": "skin", "test": "Irritating skin reactions in volunteers of the in vivo studies", "set-up": "species or system human", "settings": "topical emulsion (active principle 4%, retinol 0.15%), bi-daily for 28 days", "method": "The active principle is formulated at 4% in an emulsion. Retinol is formulated at 0.15% in an emulsion.\nThe 2 formulae are tests and 2 groups of volunteers, against a placebo.\nThe tests have shown the influence of the active principle or of retinol on the appearance of crows-feet wrinkles, after bi-daily application for 28 days.\nThe active principle is formulated at 4% in emulsion, and retinol is formulated at 0.15% in an emulsion.\nThe 2 formulations are tested on 2 groups of volunteers, against a placebo.\nThe tests are carried out and the influence of the active principle or of retinol on the appearance of cutaneous micro-relief, after bi-daily application for 28 days."}}}
{"compound": "CC1=C(/C=C/C(C)=C/C=C/C(C)=C/CO)C(C)(C)CCC1", "note": "[retinol]", "values": [{"measurement": "increase of the synthesis of collagen I", "setting": "collagen I", "result": 171, "unit": "%"}, {"measurement": "smoothing effect on the micro-contour (mean rugosity) relative to the comparison", "setting": "cutaneous micro-relief", "result": 8, "unit": "%"}, {"measurement": "irritating skin reactions", "setting": "skin", "result": "reactions of the irritating skin type"}]}
